Experimental findings from patent US8507464B2, “Phosphoramidate alkylator prodrugs” (Threshold Pharmaceuticals, Inc., priority 2005, dated 2013) are described below.

Data set [1] deals with mouse (MLM) liver microsomal proteins. Format: in vitro ADME. The note with it: Table 2B.
Data set [2] can be described thus: in vivo. The settings on record: CD-1, mouse.
Data set [3] is classed as physicochemical. The settings on record: glassy carbon, Ag/AgCl reference.
Data set [4] relates to NCI-H460 cells. Kind of data set: Antiproliferation assay - oxygen dependence. In kind it is cell-based, human. From the text: . […] The calculated IC50 values (μM) are tabulated in Table Y1 (H460 cells) or Table Y2 (HT29 cells) below.
The subject of another data set is H460 cell line. Kind of data set: Anti-proliferation assay, hypoxia vs normoxia (Table 1A). The note with it: for IC50: Homo sapiens; for HCR P: ratio of IC50 in normoxia and hypoxia.
A short description of data set [5]: in vivo.
The next data set relates to HT29 cells. Kind of data set: Antiproliferation assay (Alamar Blue), anoxia vs air. The note with it: Homo sapiens, HT-29, 2 h.
For another data set, the system named is HT29. Kind of data set: Anti-proliferation assay, hypoxia vs normoxia (Table 1B). The settings on record: for IC50: Homo sapiens.
Data set [6] deals with NCI-H460 cells. Kind of data set: Antiproliferation assay (Alamar Blue), anoxia vs air. A general note: Alamar Blue is a resazurin reagent that responds to reducing activity.
Data set [7] is described as follows: Plasma stability (Table 2B).
Another data set relates to human H460 cells. Kind of data set: Clonogenic survival assay, hypoxia vs normoxia (Table 1A). The settings on record: for IC90: Homo sapiens.
In data set [8] the test system is H460 lung carcinoma spheroids. Kind of data set: Spheroid model, clonogenic survival. The settings on record: Homo sapiens, NCI-H460, 2 h, read-out: IC90 H460 Spheroid 10% O2.
Data set [9] deals with NCI-H460 cells. Kind of data set: Clonogenic assay - oxygen dependence. The note with it: Homo sapiens.
The next data set concerns MES-SA cells. Kind of data set: Antiproliferation assay (Alamar Blue), anoxia vs air. The note with it: Homo sapiens, 2 h.
Where [10] appears, read: Homo sapiens, NCI-H460, read-out: IC50 in H460 cells, 0.1% O2.
Setting [11] is: Homo sapiens, NCI-H460, read-out: IC50 in H460 cells, 0.6% O2.
The mark [12] stands for this setting: Homo sapiens, NCI-H460, read-out: IC50 in H460 cells, 1% O2.
Setting [13] is: Homo sapiens, NCI-H460, read-out: IC50 in H460 cells, 10% O2.
The mark [14] stands for this setting: Homo sapiens, NCI-H460; read-out: IC50 in H460 cells, Air.
[15] abbreviates: Homo sapiens, NCI-H460; read-out: IC50 in H460 cells, N2.
Setting [16] is: NCI-H460, read-out: Hypoxia P (proliferation IC50).
The mark [17] stands for this setting: NCI-H460, read-out: Normoxia P (proliferation IC50).
Setting [18] is: CD-1, Balb/c for Compound 1, mouse, iv.
[19] abbreviates: Homo sapiens, NCI-H460, 2 h, read-out: IC50 H460 Air, air, 2 h exposure.
Where [20] appears, read: Homo sapiens, NCI-H460, 2 h, read-out: IC50 H460 Anoxia, anoxia, 2 h exposure.
The mark [21] stands for this setting: NCI-H460, read-out: IC90 H460 0.6% O2.
The mark [22] stands for this setting: NCI-H460, read-out: IC90 H460 Air.
Setting [23] is: NCI-H460, read-out: IC90 H460 N2.

By AUC is commonly meant concentration integrated over time. A low value points to low exposure. As a reminder, the Cmax is the peak of the concentration-time curve. As a reminder, the Tmax is the time at which the peak concentration occurs. As usually defined, the half-life is the time needed for the level to fall by half in the phase considered. Broadly, the clearance is the volume of plasma or blood freed of the substance per unit of time. For orientation: Vd means the apparent volume that relates the amount in the body to the concentration in plasma or blood. One may read the IC90 as the concentration at which the effect reaches the 90% level.

Where two headings read alike, the source gives them in different places.

As for `CN(CCCl)P(=O)(OCc1cnc([N+](=O)[O-])n1C)N(C)CCCl` [Compound 5], the “Metabolic stability (MLM) (% at 30 min)” value in data set [1] turned out to be 5%. The “Metabolic stability (MLM), value in parentheses” value in data set [1] (parentheses not explained) is given as “(20) %”. The AUC in “in vivo [2]” (ip, 50 mg/kg) was 57.4 µg·h/mL; in the data set “in vivo [2]” (iv, 50 mg/kg), 270 µg·h/mL; in “in vivo [5]” (setting [18]), 4.5 µg·h/mL; in “in vivo [5]” (CD-1, mouse, ip) it was 1 µg·h/mL. In addition, the Cmax is 3000 ng/mL in the data set “in vivo [2]” (ip, 50 mg/kg); 16900 ng/mL in the data set “in vivo [2]” (iv, 50 mg/kg); 3000 ng/mL in the data set “in vivo [5]” (CD-1, Balb/c for Compound 1, mouse, ip); 16900 ng/mL in “in vivo [5]” (setting [18]). The Tmax in the data set “in vivo [2]” (ip, 50 mg/kg) was 5 min; in the data set “in vivo [2]” (iv, 50 mg/kg) it was 5 min. The half-life in the data set “in vivo [2]” (ip, 50 mg/kg) was 2.56 min; in “in vivo [2]” (iv, 50 mg/kg), 4.67 min; in “in vivo [5]” (CD-1, Balb/c for Compound 1, mouse, iv, t ½, intravenous administration in mice, mice), 4.8 min. The “Reduction Potentials, 100 mV/sec” value in data set [3] (scan rate 100 mV/sec) is given as −606 mV. The “Reduction Potentials, 10,000 mV/sec” value in [3] (scan rate 10,000 mV/sec) is reported as −634 mV. The IC50 came to 1 µM in the data set on NCI-H460 cells [4] (setting [10]); 1 µM in the data set on NCI-H460 cells [4] (setting [11]); 10 µM with NCI-H460 cells [4] (setting [12]); 5 µM with NCI-H460 cells [4] (setting [13]); 40 µM with NCI-H460 cells [4] (setting [14]); 0.03 µM with NCI-H460 cells [4] (setting [15]). The IC50 with H460 cell line (setting [16]) was 4.5 µM; in the data set on H460 cell line (setting [17]), 3.5 µM; with HT29 cells (read-out: IC50 HT29 Air), greater than 100 µM; in the data set on HT29 cells (read-out: IC50 HT29 Anoxia), 10 µM; in the data set with HT29 (HT-29, read-out: HT29 P H (proliferation IC50, hypoxia)) it was 10 µM; with HT29 (HT-29, read-out: HT29 P N (proliferation IC50, normoxic)), greater than 100 µM. The IC50 turned out to be 6 µM with NCI-H460 cells [6] (setting [19]) and 0.05 µM in the data set on NCI-H460 cells [6] (setting [20]). Moreover, the “HCR P” value with H460 cell line is listed as 1. The compound also had a clearance in the data set “in vivo [5]” (CD-1 (Compounds 5, 23, 36), Balb/c (Compound 1), mouse, iv) of 185 mL/min/kg. In “in vivo [5]” (setting [18]), this compound came in with a Vd of 1.25 L/kg. In addition, the “HT29 HCR P” value with HT29 is reported as greater than 10. The “Plasma stability (% at 30 min)” value in [7] turned out to be 100%. For the same compound, in [7] (parentheses not explained), the “Plasma stability, value in parentheses” value is recorded as “(85) %”.
With `Cn1c(COP2(=O)N(CCCl)CCCN2CCCl)cnc1[N+](=O)[O-]` [Compound 16], the concentration for an effect of 90% (IC90) in the data set with human H460 cells (NCI-H460, read-out: Hypoxia C (clonogenic IC90)) turned out to be 0.2 µM; in the data set with human H460 cells (NCI-H460, read-out: Normoxia C (clonogenic IC90)) it was 35 µM. The “HCR C” value in the data set on human H460 cells (ratio of IC90 in normoxia and hypoxia) is given as 175. For the same compound, in data set [1], the “Metabolic stability (MLM) (% at 30 min)” value was determined as 40%. Also, the IC50 is 10 µM with NCI-H460 cells [4] (setting [10]); 10 µM in the data set on NCI-H460 cells [4] (setting [11]); 100 µM in the data set on NCI-H460 cells [4] (setting [13]); greater than 100 µM in the data set on NCI-H460 cells [4] (setting [14]); 0.3 µM in the data set with NCI-H460 cells [4] (setting [15]); 1.6 µM in the data set with H460 cell line (setting [16]). The IC50 in the data set with H460 cell line (setting [17]) is 100 µM; in the data set with NCI-H460 cells [6] (setting [19]), greater than 100 µM; in the data set on NCI-H460 cells [6] (setting [20]) it was 1.6 µM. Besides, the “HCR P” value in the data set with H460 cell line is recorded as 60.
On to `O=[N+]([O-])c1ccc(COP(=O)(NCCCl)NCCCl)s1` [Compound 26], for which the “Metabolic stability (MLM) (% at 30 min)” value in data set [1] was found to be 56%. In addition, the IC50 in the data set with NCI-H460 cells [4] (setting [10]) is 3 µM; in the data set with NCI-H460 cells [4] (setting [11]), 6 µM; in the data set on NCI-H460 cells [4] (setting [12]), 5 µM; with NCI-H460 cells [4] (setting [13]), 10 µM; in the data set on NCI-H460 cells [4] (Homo sapiens, NCI-H460, read-out: IC50 in H460 cells, Air), 40 µM; with NCI-H460 cells [4] (Homo sapiens, NCI-H460, read-out: IC50 in H460 cells, N2), 0.3 µM. Further, the IC50 worked out at 0.1 µM in the data set with H460 cell line (setting [16]), 35 µM in the data set with H460 cell line (setting [17]), 35 µM in the data set with NCI-H460 cells [6] (setting [19]) and 0.1 µM with NCI-H460 cells [6] (setting [20]). Also, the “HCR P” value in the data set on H460 cell line is 350. For the same compound, the “Plasma stability (% at 30 min)” value in data set [7] was determined as 85%.
Take `Cn1c(COP2(=O)N(CCBr)CCCN2CCBr)cnc1[N+](=O)[O-]` [Compound 35]: the concentration for an effect of 90% (IC90) worked out at 22 µM in data set [8], 3 µM in the data set with NCI-H460 cells [9] (setting [21]), 30 µM in the data set with NCI-H460 cells [9] (setting [22]) and 0.5 µM with NCI-H460 cells [9] (setting [23]). In [1], the “Metabolic stability (MLM) (% at 30 min)” value was found to be 56%. In addition, the IC50 in the data set on NCI-H460 cells [4] (Homo sapiens, NCI-H460, read-out: IC50 in H460 cells, 0.3% O2) came to 6 µM; in the data set with NCI-H460 cells [4] (setting [11]), 5 µM; in the data set on NCI-H460 cells [4] (setting [12]), 40 µM; in the data set on NCI-H460 cells [4] (setting [14]), 50 µM; in the data set with NCI-H460 cells [4] (setting [15]), 0.05 µM; in the data set with MES-SA cells (read-out: IC50 MES-SA Air), 100 µM. Also, the IC50 is 1 µM in the data set on MES-SA cells (read-out: IC50 MES-SA Anoxia); 0.075 µM in the data set on H460 cell line (setting [16]); 50 µM with H460 cell line (setting [17]); greater than 100 µM in the data set with HT29 cells (read-out: IC50 HT29 Air); 1.8 µM with HT29 cells (read-out: IC50 HT29 Anoxia); 50 µM in the data set with NCI-H460 cells [6] (setting [19]). Besides, the IC50 in the data set with NCI-H460 cells [6] (setting [20]) was 0.075 µM; in the data set on NCI-H460 cells [6] (read-out: IC50 H460 Air, air, 2 h exposure), 55 µM. The “HCR P” value with H460 cell line is on record as 625. Moreover, the “Plasma stability (% at 30 min)” value in data set [7] is recorded as 85%.
Turning to `C[C@H](CCl)NP(=O)(N[C@H](C)CCl)OCc1cnc([N+](=O)[O-])n1C` [Compound 37], the 90% effect concentration (IC90) with NCI-H460 cells [9] (setting [21]) turned out to be 5 µM; in the data set with NCI-H460 cells [9] (setting [22]), 90 µM; in the data set with NCI-H460 cells [9] (setting [23]), 0.2 µM. Also, the exposure (AUC) was 196 µg·h/mL in the data set “in vivo [2]” (ip, 20 mg/kg) and 172 µg·h/mL in the data set “in vivo [2]” (iv, 20 mg/kg). Further, the peak concentration (Cmax) worked out at 12600 ng/mL in the data set “in vivo [2]” (ip, 20 mg/kg) and 15000 ng/mL in the data set “in vivo [2]” (iv, 20 mg/kg). Moreover, the time to peak (Tmax) in “in vivo [2]” (ip, 20 mg/kg) was 2 min; in “in vivo [2]” (iv, 20 mg/kg) it was 2 min. Further, the half-life is 23.2 min in “in vivo [2]” (ip, 20 mg/kg) and 9 min in “in vivo [2]” (iv, 20 mg/kg). The IC50 in the data set on NCI-H460 cells [4] (setting [11]) is 25 µM; in the data set with NCI-H460 cells [4] (setting [14]), greater than 100 µM; in the data set on NCI-H460 cells [4] (setting [15]) it was 0.5 µM; in the data set with NCI-H460 cells [6] (setting [19]), greater than 100 µM; in the data set on NCI-H460 cells [6] (setting [20]) it was 0.36 µM.
